By pIC50 is commonly meant −log10 of the IC50, conventionally taken in molar units. Higher therefore signals a small IC50.

Test [1] addresses T1, Ubiquitin carboxyl-terminal hydrolase isozyme L1 (Mus musculus, UniProt Q9R0P9).
T1 sequence (Q9R0P9 whole entry): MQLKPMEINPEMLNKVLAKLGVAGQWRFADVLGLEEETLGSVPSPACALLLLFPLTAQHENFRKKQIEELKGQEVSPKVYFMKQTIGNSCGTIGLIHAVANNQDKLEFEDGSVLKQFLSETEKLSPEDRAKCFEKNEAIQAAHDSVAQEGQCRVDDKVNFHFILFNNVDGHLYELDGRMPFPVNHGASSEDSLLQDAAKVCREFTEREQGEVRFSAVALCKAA
Put plainly: Inhibition Activity Assay. The settings on record: pH 7.6; 25 °C. From the text: (§1) Inhibition activity and selectivity for UCH-L1 and UCH-L3.

The target of test [2] is T2, Ubiquitin carboxyl-terminal hydrolase isozyme L3 (Mus musculus, UniProt Q9JKB1).
T2 sequence (Q9JKB1 whole entry): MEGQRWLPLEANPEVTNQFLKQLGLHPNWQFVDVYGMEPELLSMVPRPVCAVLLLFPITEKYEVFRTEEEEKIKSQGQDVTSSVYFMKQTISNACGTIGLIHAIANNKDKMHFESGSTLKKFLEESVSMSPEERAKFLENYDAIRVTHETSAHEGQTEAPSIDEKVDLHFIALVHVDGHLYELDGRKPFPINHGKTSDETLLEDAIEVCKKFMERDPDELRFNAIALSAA
Put plainly: Inhibition Activity Assay. As to conditions: pH 7.6; 25 °C.
From the text: as §1

Structures are written as SMILES. pIC50: −log10 of the molar value.

Turning to `CCC1=NN(C(=O)c2ccccc2O)C(O)(c2ccccc2)C1` (stereo unspecified) [(3-ethyl-5-hydroxy-5-phenyl-4H-pyrazol-1-yl)-(2-hydroxyphenyl)methanone], the pIC50 in test [1] is 5.47; in test [2] it was 4.14.
Taken in the same sequence, the figures for `COc1ccc(N(CC(=O)NCCSCc2cccc(Cl)c2)S(C)(=O)=O)cc1Cl` [N-[2-[(3-chlorobenzyl)thio]ethyl]-2-(3-chloro-N-mesyl-4-methoxy-anilino)acetamide] were 5.89 and 4.66.
Taken in the same sequence, the figures for `Oc1ccc(Oc2ccc(Oc3ccc(O)cc3)cc2)cc1` [MLS001162917] were 5.47 and 4.33.
Taken in the same sequence, the figures for `COC(=O)[C@H]1[C@H](CCc2ccccc2)NC(=O)N(Cc2ccccc2)[C@@H]1C` were 4.29 and 3.94.
With `CCOC(=O)C1=C(C)N=c2s/c(=C\c3ccc(O)c([N+](=O)[O-])c3)c(=O)n2C1c1ccccc1OC` (stereo unspecified) [ethyl 2-[(4-hydroxy-3-nitrophenyl)methylidene]-5-(2-methoxyphenyl)-7-methyl-3-oxo-5H-[1,3]thiazolo[3,2-a]pyrimidine-6-carboxylate], the pIC50 in test [1] was 5.74; in test [2] it was 4.40.
Taken in the same sequence, the figures for `CCCOc1ccc(/C=C/c2c([N+](=O)[O-])c(=O)n(C)c(=O)n2C)cc1` [1,3-dimethyl-5-nitro-6-[(E)-2-(4-propoxyphenyl)vinyl]pyrimidine-2,4-quinone] were 6.09 and 4.77.
Taken in the same sequence, the figures for `c1ccc(-c2nc(C3CCCCC3)c3ccccc3n2)cc1` [4-Cyclohexyl-2-phenyl-quinazoline] were 4.12 and 6.22.
In the case of `CC(C)(C)OC(=O)NCCCC[C@H](NC(=O)c1[nH]cnc1C(=O)Nc1ccc(Cl)cc1)C(=O)OC(C)(C)C` [(2S)-2-[[[4-[(4-chloroanilino)-oxomethyl]-1H-imidazol-5-yl]-oxomethyl]amino]-6-[[(2-methylpropan-2-yl)oxy-oxomethyl]amino]hexanoic acid tert-butyl ester], the pIC50 in test [1] is 4.72; in test [2] it was 4.24.
With `Cc1nc(N=NC(C)c2ccc(Br)cc2)cc(N2CCCCC2)n1` (stereo unspecified) [N-[1-(4-bromophenyl)ethylideneamino]-2-methyl-6-piperidin-1-ylpyrimidin-4-amine], the negative-log IC50 (pIC50) is 5.59 in test [1] and 4.80 in test [2].
The corresponding values for `CC(C)(C)OC(=O)[C@H](Cc1ccccc1)NC(=O)c1[nH]cnc1C(=O)Nc1ccc(Cl)cc1` [SMR000465882] are 4.80 and 4.62.
The corresponding values for `Cc1cccc(NC(=O)c2nc[nH]c2C(=O)N[C@@H](Cc2ccccc2)C(=O)OC(C)(C)C)c1` [tert-butyl (2S)-2-[[4-[(3-methylphenyl)carbamoyl]-1H-imidazole-5-carbonyl]amino]-3-phenylpropanoate] are 4.92 and 4.28.
Taken in the same sequence, the figures for `CCN(CC)c1nc(Nc2ccc([N+](=O)[O-])cc2)nc(N(CC)CC)n1` [2-N,2-N,4-N,4-N-tetraethyl-6-N-(4-nitrophenyl)-1,3,5-triazine-2,4,6-triamine] were 5.54 and 4.74.
On to `CC1=CC(=O)c2ccccc2C1=O` [Vitamin K3], for which the pIC50 in test [1] was 3.54; in test [2], 4.15.
The corresponding values for `COc1ccc(NC(=O)c2[nH]cnc2C(=O)N[C@@H](CC(C)C)C(=O)OC(C)(C)C)cc1` [(2S)-2-[[4-[(4-methoxyphenyl)carbamoyl]-1H-imidazole-5-carbonyl]amino]-4-methyl-valeric acid tert-butyl ester] are 4.57 and 4.32.
Taken in the same sequence, the figures for `COc1ccccc1-c1cc(-c2ccccc2)nc(SCC(=O)O)c1C#N` [2-[[3-cyano-4-(2-methoxyphenyl)-6-phenyl-2-pyridinyl]thio]acetic acid] were 6.03 and 4.64.
On to `COc1ccc2nc(C3CCCCC3)nc(C3CCCCC3)c2c1` [2,4-Dicyclohexyl-6-methoxy-quinazoline], for which the pIC50 in test [1] was 3.90; in test [2], 4.33.
The corresponding values for `COc1ccc(-n2c(C=Cc3ccc(O)c(OC)c3)nc3ccccc3c2=O)cc1` [SMR000516541] are 4.92 and 4.28.
With `Cc1cccc(NC(=O)c2nc[nH]c2C(=O)N[C@@H](CC(C)C)C(=O)OCc2ccccc2)c1` [benzyl (2S)-4-methyl-2-[[4-[(3-methylphenyl)carbamoyl]-1H-imidazole-5-carbonyl]amino]pentanoate], the values for the negative-log IC50 (pIC50) in test [1] and in test [2] were 4.92 and 4.48, respectively.

The values are drawn from BindingDB's records for doi:10.1016/j.chembiol.2003.08.010 (Brigham and Women's Hospital, 2003).
